Test results published in patent US10626112B2, “Heterocyclic sulfonamide derivative and medicine comprising same” (EA PHARMA CO., LTD., priority 2014, dated 2020).

target: human TRPA1 (Homo sapiens (Human), UniProt O75762); experiment: Measurement of TRPA1 antagonist activity (1): intracellular calcium increase; format: cell-based; conditions: 293T cells transfected with human TRPA1 expression plasmid; allylisothiocyanate 20 μM stimulation; intracellular calcium fluorescence; read-out: hTRPA1 IC50
Sequence (O75762 whole entry): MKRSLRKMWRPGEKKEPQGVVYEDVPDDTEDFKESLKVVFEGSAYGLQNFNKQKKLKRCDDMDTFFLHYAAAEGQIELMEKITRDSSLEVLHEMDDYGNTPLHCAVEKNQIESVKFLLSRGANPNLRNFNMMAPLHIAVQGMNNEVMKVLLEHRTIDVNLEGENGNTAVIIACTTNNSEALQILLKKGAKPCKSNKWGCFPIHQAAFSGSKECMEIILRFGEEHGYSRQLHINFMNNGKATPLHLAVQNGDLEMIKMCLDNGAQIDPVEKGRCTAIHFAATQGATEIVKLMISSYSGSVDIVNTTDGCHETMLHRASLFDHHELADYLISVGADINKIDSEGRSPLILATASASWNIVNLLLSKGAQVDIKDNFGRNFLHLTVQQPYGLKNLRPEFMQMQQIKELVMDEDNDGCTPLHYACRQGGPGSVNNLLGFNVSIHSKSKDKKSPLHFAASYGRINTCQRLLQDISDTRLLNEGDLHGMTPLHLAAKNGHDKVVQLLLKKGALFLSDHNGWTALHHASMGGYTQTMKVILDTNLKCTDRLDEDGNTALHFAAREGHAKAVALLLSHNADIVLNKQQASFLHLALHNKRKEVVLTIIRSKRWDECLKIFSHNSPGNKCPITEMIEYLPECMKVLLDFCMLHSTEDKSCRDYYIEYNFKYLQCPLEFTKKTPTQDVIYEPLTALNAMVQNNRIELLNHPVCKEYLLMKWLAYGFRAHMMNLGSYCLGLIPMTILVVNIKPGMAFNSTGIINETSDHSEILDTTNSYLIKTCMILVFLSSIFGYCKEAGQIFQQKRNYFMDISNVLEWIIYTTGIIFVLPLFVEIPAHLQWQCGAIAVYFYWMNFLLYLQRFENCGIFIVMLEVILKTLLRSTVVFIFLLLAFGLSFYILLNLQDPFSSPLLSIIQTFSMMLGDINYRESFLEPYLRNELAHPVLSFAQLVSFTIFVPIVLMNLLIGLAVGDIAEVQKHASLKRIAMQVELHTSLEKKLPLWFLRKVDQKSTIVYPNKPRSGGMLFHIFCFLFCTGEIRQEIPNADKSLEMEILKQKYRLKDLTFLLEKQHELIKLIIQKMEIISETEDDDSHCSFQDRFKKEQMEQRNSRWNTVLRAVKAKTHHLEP
Method in brief: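 HEK293T cells transiently transfected with full-length human TRPA1, loaded with Calcium4 dye in HBSS/20 mM HEPES pH 7.2. Test compound preincubated 10 min, then allylisothiocyanate added at 20 μM final and fluorescence change followed for 5 min. IC50 from sigmoid fit of percent inhibition relative to agonist and buffer controls.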

| SMILES | IC50 [nM] |
| --- | --- |
| C[C@H](NS(=O)(=O)c1cc2cc(F)ccc2o1)C(=O)NCc1cccc(-c2ccc(C(F)(F)F)nc2)c1 [Example 106, (2S)-2-[(5-fluorobenzofuran-2-yl)sulfonylamino]-N-[[3-[6-(trifluoromethyl)-3-pyridyl]phenyl]methyl]propanamide] | 10 |
| O=C(NCc1cc(-c2ccc(C(F)(F)F)cn2)ccn1)[C@@H]1[C@H]2CC[C@H](C2)N1S(=O)(=O)c1cc2cc(F)ccc2o1 [Example 262, (1S,2S,4R)-3-(5-fluorobenzofuran-2-yl)sulfonyl-N-[[4-[5-(trifluoromethyl)-2-pyridyl]-2-pyridyl]methyl]-3-azabicyclo[2.2.1]heptane-2-carboxamide] | 2.3 |
| O=C(NCc1cccc(Oc2ccc(C(F)(F)F)nc2)c1)[C@@H]1CCCN1S(=O)(=O)c1cc2ccccc2o1 [Example 54, (2S)-1-(benzofuran-2-ylsulfonyl)-N-[[3-[[6-(trifluoromethyl)-3-pyridyl]oxy]phenyl]methyl]-pyrrolidine-2-carboxamide] | 9 |
| C[C@H](NS(=O)(=O)c1cc2cc(F)ccc2o1)C(=O)NCc1cc(-c2cnc(C(F)(F)F)cn2)ccn1 [Example 243, (2S)-2-[(5-fluorobenzofuran-2-yl)sulfonylamino]-N-[[4-[5-(trifluoromethyl)pyrazin-2-yl]-2-pyridyl]methyl]propanamide] | 55 |
| O=C(NCc1cc(-c2ccc(C(F)(F)F)cn2)ncn1)[C@@H]1CCCN1S(=O)(=O)c1cc2ccccc2o1 [Example 206, (2S)-1-(benzofuran-2-ylsulfonyl)-N-[[6-[5-(trifluoromethyl)-2-pyridyl]pyrimidin-4-yl]methyl]pyrrolidine-2-carboxamide] | 12 |
| O=C(NCc1ccnc(-c2ccc(OC(F)(F)F)cc2)c1)[C@@H]1CCCN1S(=O)(=O)c1cc2ccccc2o1 [Example 116, (2S)-1-(benzofuran-2-ylsulfonyl)-N-[[2-[4-(trifluoromethoxy)phenyl]-4-pyridyl]methyl]pyrrolidine-2-carboxamide] | 2.9 |
| O=C(NCc1cc(-c2ccc(C(F)(F)F)cn2)ccn1)[C@@H]1C[C@@H]2C[C@@H]2N1S(=O)(=O)c1cc2cc(F)ccc2o1 [Example 259, (1S,3S,5S)-4-(5-fluorobenzofuran-2-yl)sulfonyl-N-[[4-[5-(trifluoromethyl)-2-pyridyl]-2-pyridyl]methyl]-4-azabicyclo[3.1.0]hexane-3-carboxamide] | 1.2 |
| O=C(NCc1cccc(OCc2cncc(Cl)c2)c1)[C@@H]1CCCN1S(=O)(=O)c1cc2ccccc2o1 [Example 10, (2S)-1-(benzofuran-2-ylsulfonyl)-N-[[3-[(5-chloro-3-pyridyl)methoxy]-phenyl]methyl]-pyrrolidine-2-carboxamide] | 10 |
| CN(C)c1cncc(COc2cccc(CNC(=O)[C@@H]3CCCN3S(=O)(=O)c3cc4cc(F)ccc4o3)c2)c1 [Example 23, (2S)-N-[[3-[[5-(dimethylamino)-3-pyridyl]methoxy]phenyl]-methyl]-1-(5-fluorobenzofuran-2-yl)sulfonyl-pyrrolidine-2-carboxamide] | 110 |
| O=C(NCc1cccc(-c2ccc(N3CCOCC3)nc2)c1)[C@@H]1CCCN1S(=O)(=O)c1cc2cc(F)ccc2o1 [Example 161, (2S)-1-(5-fluorobenzofuran-2-yl)sulfonyl-N-[[3-(6-morpholino-3-pyridyl)phenyl]methyl]-pyrrolidine-2-carboxamide] | 27 |
| O=C(NCc1ccnc(-c2ccc(C(F)(F)F)cc2O)c1)[C@@H]1CCCN1S(=O)(=O)c1cc2ccccc2o1 [Example 123, (2S)-1-(benzofuran-2-ylsulfonyl)-N-[[2-[2-hydroxy-4-(trifluoromethyl)phenyl]-4-pyridyl]methyl]pyrrolidine-2-carboxamide] | 2.6 |
| O=C(NCc1ccc(-c2cccc(C(F)(F)F)c2)cc1)[C@@H]1CCCN1S(=O)(=O)c1cc2ccccc2o1 [Example 166, (2S)-1-(benzofuran-2-ylsulfonyl)-N-[[4-[3-(trifluoromethyl)phenyl]-phenyl]methyl]pyrrolidine-2-carboxamide] | 260 |
| CN1CCOc2cc(COc3cccc(CNC(=O)[C@@H]4CCCN4S(=O)(=O)c4cc5cc(F)ccc5o4)c3)cnc21 [Example 24, (2S)-1-(5-fluorobenzofuran-2-yl)sulfonyl-N-[[3-[(4-methyl-2,3-diphydropyrido[3,2-b][1,4]oxazin-7-yl)methoxy]-phenyl]methyl]pyrrolidine-2-carboxamide] | 410 |
| C[C@H](NS(=O)(=O)c1cc2cc(F)ccc2o1)C(=O)NCc1cc(-c2ccc(OC(F)(F)F)cc2)ccn1 [Example 239, (2S)-2-[(5-fluorobenzofuran-2-yl)sulfonylamino]-N-[[4-[4-(trifluoromethoxy)phenyl]-2-pyridyl]methyl]propanamide] | 17 |
| O=C(NCc1cc(-c2cnc(C(F)(F)F)nc2)ncn1)[C@@H]1CCCN1S(=O)(=O)c1cc2ccccc2o1 [Example 207, (2S)-1-(benzofuran-2-ylsulfonyl)-N-[[6-[2-(trifluoromethyl)pyrimidin-5-yl]pyrimidin-4-yl]methyl]pyrrolidine-2-carboxamide] | 4 |
| C[C@H](NS(=O)(=O)c1cc2ccccc2o1)C(=O)NCc1cc(C(F)(F)F)ccc1Cl [Example 72, (2S)-2-(benzofuran-2-ylsulfonylamino)-N-[[2-chloro-5-(trifluoromethyl)phenyl]methyl]-propanamide] | 350 |
| O=C(NCc1ccnc(-c2ccc(C(F)(F)F)cc2)c1)[C@@H]1C=CCN1S(=O)(=O)c1cc2cc(F)ccc2o1 [Example 98, (2S)-1-(5-fluorobenzofuran-2-yl)sulfonyl-N-[[2-[4-(trifluoromethyl)phenyl]-4-pyridyl]methyl]-2,5-dihydropyrrole-2-carboxamide] | 0.76 |
| O=C(NCc1ccc(O)c(-c2ncc(C(F)(F)F)cn2)c1)[C@@H]1CCCN1S(=O)(=O)c1cc2ccccc2o1 [Example 213, (2S)-1-(benzofuran-2-ylsulfonyl)-N-[[4-hydroxy-3-[5-(trifluoromethyl)-pyrimidin-2-yl]phenyl]-methyl]pyrrolidine-2-carboxamide] | 47 |
| O=C(NCc1cccc(-c2ccc(F)cc2)c1)[C@@H]1CCCN1S(=O)(=O)c1cc2cc(F)ccc2o1 [Example 155, (2S)-1-(5-fluorobenzofuran-2-yl)sulfonyl-N-[[3-(4-fluorophenyl)phenyl]methyl]-pyrrolidine-2-carboxamide] | 4 |
| O=C(NCc1cccc(C(F)(F)F)c1)[C@@H]1CCCN1S(=O)(=O)c1cc2ccccc2o1 [Example 61, (2S)-1-(benzofuran-2-ylsulfonyl)-N-[[3-(trifluoromethyl)phenyl]methyl]-pyrrolidine-2-carboxamide] | 55 |
| O=C(NCc1ccnc(-c2ccc(C(F)(F)F)nc2)c1)[C@@H]1CCCN1S(=O)(=O)c1cc2cc(F)ccc2o1 [Example 133, (2S)-1-(5-fluorobenzofuran-2-yl)sulfonyl-N-[[2-[6-(trifluoromethyl)-3-pyridyl]-4-pyridyl]methyl]pyrrolidine-2-carboxamide] | 0.83 |
| CSc1ccc(-c2cc(CNC(=O)[C@@H]3CCCN3S(=O)(=O)c3cc4ccccc4o3)ccn2)cc1 [Example 278, (2S)-1-(benzofuran-2-ylsulfonyl)-N-[[2-(4-methylsulfanylphenyl)-4-pyridyl]methyl]pyrrolidine-2-carboxamide] | 16 |
